The values that follow come from article PMC4857130, “Mechanistic and quantitative insight into cell surface targeted molecular imaging agent design” (Scientific Reports, 2016).

In data set [1] the test system is plasma protein. The following applies: cited from earlier work.
Another data set relates to LNCaP or PC3 xenografts. Also on record: method as in PMID 19706750, PMID 23733925. Particulars: cited from earlier work; for TBR (tumor to muscle ratio) / blood concentration: 4 h post-injection; for TBR (tumor to muscle ratio): calculated from published tumor and skeletal muscle uptake.
A further data set has as its target PSMA. Also on record: method as in PMID 19706750, PMID 23733925. The following applies: strongest affinity of all PSMA binders tested; cited from earlier work.
The test system of data set [2] is plasma protein. Put plainly: Plasma protein binding by Rapid Equilibrium Dialysis (RED). The format is in vitro ADME. The following applies: 12 kDa plate. For orientation: In equilibrium dialysis only unbound substance equilibrates across the membrane.
From the text: Plasma protein interactions were quantified for commonly used, commercially available far-red and near-infrared fluorescent dyes. For IRDye 800CW, ZW800, BODIPY 650, Alexa Fluor 680, and integrin conjugates, a Rapid Equilibrium Dialysis (RED) plate (Thermo Scientific) was used following the manufacturer’s protocol.
Rapid Equilibrium Dialysis (RED) was used to quantify plasma protein binding
for various fluorescent dyes (carboxylate form) and fluorescent conjugates.
are available with membrane molecular weight cutoffs of either 8 kDa or 12 kDa.
that many of the fluorescent conjugates are >1 kDa, the 12 kDa plate were used to reduce
The 12 kDa RED plate gave

Like-named read-outs stand apart in the source and are kept apart here. Marks after values point to notes of the source that are not given here.

Broadly, the Kd is a measure of binding affinity in units of concentration.

On to `O=C([O-])CN(CCN(CC(=O)[O-])CC(=O)[O-])CCN(CC(=O)[O-])CC(=O)[O-].[99Tc+4]` [99mTc-DTPA], for which the plasma protein binding in the data set with plasma protein [1] is on record as < 5%.
As for `CC1(C)C(/C=C/C=C/C=C/C=C2\N(CCCCS(=O)(=O)[O-])c3ccc4ccccc4c3C2(C)C)=[N+](CCCCS(=O)(=O)[O-])c2ccc3ccccc3c21.[Na+]` [ICG dye], in the data set on plasma protein [1] (estimates based on a subsaturating concentration of ICG), the “% Plasma Protein Bound” value was 99.5–99.975 ^* %.
In the case of `O=C(O)CC[C@H](NC(=O)N[C@@H](CCCCNCc1ccc(I)cc1)C(=O)O)C(=O)O` [MIP1072], in the data set on LNCaP or PC3 xenografts, the “TBR (tumor to muscle ratio)” value is recorded as 171 and the blood concentration was 0.06 %ID/g.
Take `O=C(O)CC[C@H](NC(=O)N[C@@H](CCCCNC(=O)Nc1ccc(I)cc1)C(=O)O)C(=O)O` [MIP1095]: in the data set with LNCaP or PC3 xenografts (highest of the PSMA set), the skeletal muscle uptake was 0.26 %ID/g. Besides, the Kd at PSMA is 0.24 nM.
`O=C(O)CC[C@H](NC(=O)N[C@@H](CCC(=O)N[C@@H](CCCCN(Cc1nccn1CC(=O)N(CC(=O)O)CC(=O)O)Cc1nccn1CC(=O)N(CC(=O)O)CC(=O)O)C(=O)O)C(=O)O)C(=O)O` [MIP1404]: in the data set with LNCaP or PC3 xenografts, the “TBR (tumor to muscle ratio)” value is on record as 157 and the blood concentration is recorded as 0.02 %ID/g.
In the case of `O=C(O)CC[C@H](NC(=O)N[C@@H](CCC(=O)NC(CCCCN(Cc1nccn1CC(=O)O)Cc1nccn1CC(=O)O)C(=O)O)C(=O)O)C(=O)O` (stereo partly shown) [MIP1427], in the data set on LNCaP or PC3 xenografts, the “TBR (tumor to muscle ratio)” value was 31 and the blood concentration is given as 0.28 %ID/g.
Take `CC1(C)C(=CC=CC=CC=CC2=[N+](CCCCS(=O)(=O)[O-])c3ccc(C(=O)NC[C@H](O)[C@@H](O)[C@H](O)C(O)CO)cc3C2(C)C)N(CCCCS(=O)(=O)[O-])c2ccc(C(=O)NCC(O)C(O)C(O)[C@H](O)CO)cc21.[Na+]` (stereo partly shown) [SIDAG dye]: in the data set with plasma protein [1] (reported bound fraction in the plasma, discussed in SI), the “% Plasma Protein Bound” value is on record as 57 ^* %.
Consider IRDye 800CW carboxylate, for which, in the data set on plasma protein [2], the “% Plasma Protein Bound” value was 89 ± 3%.
Turning to Inulin, the plasma protein binding entry with plasma protein [1] (classic example, no reference given) is “no measurable plasma protein binding”.
